Measured values from patent US20260000676A1, “CHROMAN DERIVATIVES AS ESTROGEN RECEPTOR DEGRADERS” (THE REGENTS OF THE UNIVERSITY OF MICHIGAN, priority 2022, published 2026).

Columns and labels:
[1] = molecular target: CRBN/DDB1 (Homo sapiens (Human), UniProt Q96SW2); assay: HTRF binding assay to CRBN/DDB1; conditions: read-out: CRBN HTRF IC50
Procedure: The binding potency was determined using HTRF assay technology (Perkin Elmer). Compounds were serially diluted in DMSO and 0.2 μL volume was transferred to white 384-well plate.

[2] = molecular target: T1, ER (Homo sapiens (Human), UniProt P03372); assay: In-cell western (ICW) ER degradation assay in MCF-7 cells; format: cell-based; conditions: MCF7, 16 hrs; for DC50: ER degradation; for Dmax: MCF7, maximal ER degradation; for MCF7 Dmax %: maximal ER degradation
Procedure: (§1) ERa degradative activity of compounds can be assessed in MCF-7 and T47D Cells. MCF-7 and T47D cell are seeded and are subsequently treated with the compounds at certain concentrations (e.g., 0.02 to 300 nM). DMSO can be used as vehicle control. Cells are fixed and are blocked with Intercept (PBS) Blocking Buffer (e.g., Li-COR, Odyssey Blocking Buffer), and are stained with ER (e.g., 1:500, Cell signaling) primary antibody for overnight at cold room. Secondary Antibody (e.g., IRDye 800CW Goat anti-Rabbit IgG) and CellTag 700 Stain are added in Intercept (PBS) Blocking Buffer. Finally, cell plate is placed in incubator to dry. Image and signal are captured on Odyssey® DLx Imaging System.
(§2) Day 3: After 16 hrs of compounds treatment, cells were fixed by 4% PFA and permeabilized with elution buffer (0.1% Triton X-100 in 1% PBS Solution). Subsequently, cells were blocked with Intercept (PBS) Blocking Buffer (Li-COR, Odyssey Blocking Buffer), and were stained with ER (1:500, Cell signaling) primary antibody for overnight at cold room.
(§3) Day 4: Remove the buffer, add IRDye 800CW Goat anti-Rabbit IgG Secondary Antibody (1:2000) and CellTag 700 Stain (1:500) in Intercept (PBS) Blocking Buffer. Finally, cell plate is placed in incubator to dry. Image and signal were captured on Odyssey® DLx Imaging System.

[3] = molecular target: T1, ER; assay: In-cell western (ICW) ER degradation assay in T47D cells; format: cell-based; conditions: 16 hrs; for DC50: ER degradation; for Dmax: maximal ER degradation
Procedure: as §1, §2, §3

T1 sequence (P03372 whole entry): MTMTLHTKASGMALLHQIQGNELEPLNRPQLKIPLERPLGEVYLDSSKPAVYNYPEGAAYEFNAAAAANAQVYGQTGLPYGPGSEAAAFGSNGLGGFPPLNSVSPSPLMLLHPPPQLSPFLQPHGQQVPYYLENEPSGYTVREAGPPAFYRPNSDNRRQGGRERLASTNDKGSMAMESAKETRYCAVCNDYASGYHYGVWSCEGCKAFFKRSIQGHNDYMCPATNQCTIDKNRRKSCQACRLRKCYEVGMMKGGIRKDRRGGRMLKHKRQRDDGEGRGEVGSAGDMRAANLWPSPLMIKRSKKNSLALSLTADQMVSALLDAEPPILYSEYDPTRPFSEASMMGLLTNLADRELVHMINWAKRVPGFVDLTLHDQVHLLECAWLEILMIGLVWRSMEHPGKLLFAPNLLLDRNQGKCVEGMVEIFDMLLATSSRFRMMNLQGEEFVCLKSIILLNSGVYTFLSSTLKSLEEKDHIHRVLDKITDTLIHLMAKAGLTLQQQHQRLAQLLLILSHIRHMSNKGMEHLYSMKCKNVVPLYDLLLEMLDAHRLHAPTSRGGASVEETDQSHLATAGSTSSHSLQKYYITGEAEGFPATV
Chain of CRBN/DDB1 (Q96SW2 whole entry): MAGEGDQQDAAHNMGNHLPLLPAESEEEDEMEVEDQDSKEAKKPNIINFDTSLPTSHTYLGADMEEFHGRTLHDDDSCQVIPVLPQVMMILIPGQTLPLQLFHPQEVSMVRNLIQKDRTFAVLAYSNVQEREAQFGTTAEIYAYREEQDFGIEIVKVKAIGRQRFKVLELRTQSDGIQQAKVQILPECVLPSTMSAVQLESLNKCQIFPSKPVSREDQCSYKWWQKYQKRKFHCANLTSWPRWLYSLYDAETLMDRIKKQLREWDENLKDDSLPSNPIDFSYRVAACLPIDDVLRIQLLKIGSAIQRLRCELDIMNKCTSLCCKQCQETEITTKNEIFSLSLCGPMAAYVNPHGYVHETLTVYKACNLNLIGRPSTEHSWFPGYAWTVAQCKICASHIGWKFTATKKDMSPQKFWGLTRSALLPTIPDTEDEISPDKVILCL
Chain of CRBN/DDB1 (Q16531 whole entry partner): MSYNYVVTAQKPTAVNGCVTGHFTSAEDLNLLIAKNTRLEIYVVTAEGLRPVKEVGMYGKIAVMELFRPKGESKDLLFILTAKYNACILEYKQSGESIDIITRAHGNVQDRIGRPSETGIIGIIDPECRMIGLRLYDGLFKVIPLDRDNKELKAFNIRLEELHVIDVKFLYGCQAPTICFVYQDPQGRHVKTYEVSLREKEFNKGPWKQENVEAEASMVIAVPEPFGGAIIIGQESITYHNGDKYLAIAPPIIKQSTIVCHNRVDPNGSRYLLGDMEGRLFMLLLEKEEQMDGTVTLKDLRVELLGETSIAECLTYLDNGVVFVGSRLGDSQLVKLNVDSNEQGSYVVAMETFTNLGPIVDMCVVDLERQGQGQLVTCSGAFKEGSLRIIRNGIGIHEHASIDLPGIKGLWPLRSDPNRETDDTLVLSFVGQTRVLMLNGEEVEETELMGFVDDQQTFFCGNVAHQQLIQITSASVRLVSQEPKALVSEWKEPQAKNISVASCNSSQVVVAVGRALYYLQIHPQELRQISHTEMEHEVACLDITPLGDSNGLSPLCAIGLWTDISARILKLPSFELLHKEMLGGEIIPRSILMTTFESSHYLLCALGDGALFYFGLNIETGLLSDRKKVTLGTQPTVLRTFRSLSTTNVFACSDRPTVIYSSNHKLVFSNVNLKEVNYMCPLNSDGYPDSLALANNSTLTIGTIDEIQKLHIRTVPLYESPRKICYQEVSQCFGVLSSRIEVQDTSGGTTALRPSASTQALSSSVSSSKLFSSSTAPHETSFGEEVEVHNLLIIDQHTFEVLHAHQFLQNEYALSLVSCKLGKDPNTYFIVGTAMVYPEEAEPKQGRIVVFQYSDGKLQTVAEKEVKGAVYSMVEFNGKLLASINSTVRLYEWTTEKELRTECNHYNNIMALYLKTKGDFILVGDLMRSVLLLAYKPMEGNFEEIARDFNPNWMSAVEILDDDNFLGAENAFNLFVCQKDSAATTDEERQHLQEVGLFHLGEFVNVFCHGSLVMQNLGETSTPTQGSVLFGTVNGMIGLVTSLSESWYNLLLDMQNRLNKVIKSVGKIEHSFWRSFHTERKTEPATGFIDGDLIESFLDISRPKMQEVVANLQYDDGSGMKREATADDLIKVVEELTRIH

Compound | IC50 [1] [µM] | DC50 [2] [µM] | Dmax [2] [%] | DC50 [3] [µM] | Dmax [3] [%] | MCF7 Dmax % [2]
O=C1CCC(Nc2ccc(N3CCN(CC4CC5(CCN(c6ccc([C@@H]7c8ccc(O)cc8OC[C@@H]7c7ccccc7)cc6)CC5)C4)CC3)c(F)c2)C(=O)N1 (stereo partly drawn) [Compound A52, 3-((3-fluoro-4-(4-((7-(4-((3S,4R)-7-hydroxy-3-phenylchroman-4-yl)phenyl)-7-azaspiro[3.5]nonan-2-yl)methyl)piperazin-1-yl)phenyl)amino)piperidine-2,6-dione] | 0.05 to 0.5 | > 0.1 | < 25 | < 0.001 | 25 to 50 | –
O=C1CCC(Nc2ccc3c(c2)OC[C@H]2CN(CC4CC5(CCN(c6ccc([C@@H]7c8ccc(O)cc8OC[C@@H]7c7ccccc7)cc6)CC5)C4)CCN32)C(=O)N1 (stereo partly drawn) [Compound A94, 3-(((R)-3-((7-(4-((3S,4R)-7-hydroxy-3-phenylchroman-4-yl)phenyl)-7-azaspiro[3.5]nonan-2-yl)methyl)-1,2,3,4,4a,5-hexahydrobenzo[b]pyrazino[1,2-d][1,4]oxazin-8-yl)amino)piperidine-2,6-dione] | 0.5 to 5 | – | – | 0.001 to 0.01 | 50 to 75 | –
O=C1CCC(N2C(=O)c3cc4c(cc3C2=O)CN(C(=O)C2CCN(C3CCN(c5ccc([C@H]6c7ccc(O)cc7OC[C@H]6c6ccccc6)cc5)CC3)CC2)C4)C(=O)N1 (single isomer, unassigned) [Compound A78] | 0.5 to 5 | – | – | 0.01 to 0.1 | 25 to 50 | –
O=C1CCN(c2ccc(N3CCC(CN4CC5(CCN(c6ccc([C@@H]7c8ccc(O)cc8OC[C@@H]7c7ccccc7)cc6)CC5)C4)CC3)cc2)C(=O)N1 (single isomer, unassigned) [Compound A87] | > 5 | – | – | 0.001 to 0.01 | 25 to 50 | –
O=C1CC[C@H](N2Cc3c(ccc4c3OC[C@H]3CN(CC5CC6(CCN(c7ccc([C@@H]8c9ccc(O)cc9OC[C@@H]8c8ccccc8)cc7)CC6)C5)CCN43)C2=O)C(=O)N1 (single isomer, unassigned) [Compound A37] | < 0.05 | 0.001 to 0.01 | – | – | – | C (“C”: 25%-50%)
O=C1CCC(N2Cc3c(ccc4c3OC[C@H]3CN(CC5CCN(c6ccc([C@@H]7c8ccc(O)cc8OC[C@@H]7c7ccccc7)cc6)CC5)CCN43)C2=O)C(=O)N1 (single isomer, unassigned) [Compound A8] | 0.05 to 0.5 | 0.001 to 0.01 | – | – | – | –
Cc1nn(C2CCC(=O)NC2=O)c2ccc(N3CCN(CC4CCN(c5ccc([C@@H]6c7ccc(O)cc7OC[C@@H]6c6ccccc6)cc5F)CC4)CC3)cc12 (single isomer, unassigned) [Compound A14] | 0.5 to 5 | 0.001 to 0.01 | 25 to 50 | – | – | –
O=C1CCC(N2Cc3cc4c(cc3C2=O)CN(C(=O)C2CCN(C3CCN(c5ccc([C@H]6c7ccc(O)cc7OC[C@H]6c6ccccc6)cc5)CC3)CC2)C4)C(=O)N1 (single isomer, unassigned) [Compound A80] | 0.5 to 5 | – | – | 0.01 to 0.1 | 50 to 75 | –
COc1nc(C(=O)NC2CCC(=O)NC2=O)ccc1N1CCN(CC2CC3(CCN(c4ccc([C@H]5c6ccc(O)cc6OC[C@H]5c5ccccc5)cc4)CC3)C2)CC1 (single isomer, unassigned) [Compound A97] | 0.5 to 5 | – | – | < 0.001 | 25 to 50 | –
COc1cccc([C@@H]2COc3cc(O)ccc3[C@@H]2c2ccc(N3CCC(CN4CCN5c6ccc7c(c6OC[C@H]5C4)CN(C4CCC(=O)NC4=O)C7=O)CC3)cc2)c1 (single isomer, unassigned) [Compound A34] | 0.05 to 0.5 | 0.001 to 0.01 | 25 to 50 | – | – | –
O=C1CCC(NC(=O)c2ccc(C3CCN(CC4CCN(c5ccc([C@H]6c7ccc(O)cc7OC[C@H]6c6ccccc6)cc5F)CC4)CC3)cn2)C(=O)N1 (single isomer, unassigned) [Compound A101] | > 5 | – | – | < 0.001 | < 25 | –
Cc1nn(C2CCC(=O)NC2=O)c2ccc(N3CCN(CC4CC5(CCN(c6ccc([C@H]7c8ccc(O)cc8OC[C@H]7c7ccccc7)cc6)CC5)C4)CC3)cc12 (single isomer, unassigned) [Compound A17] | 0.05 to 0.5 | < 0.001 | 50 to 75 | – | – | –
O=C1CCC(N2Cc3c(ccc4c3OC[C@H]3CN(CC5CCN(c6ncc([C@@H]7c8ccc(O)cc8OC[C@@H]7c7ccccc7)cn6)CC5)CCN43)C2=O)C(=O)N1 (single isomer, unassigned) [Compound A36] | 0.05 to 0.5 | 0.01 to 0.1 | 25 to 50 | – | – | –
O=C1CCC(N2C(=O)c3cc4c(cc3C2=O)CN(CC(=O)N2CCC3(CC2)CN(c2ccc([C@H]5c6ccc(O)cc6OC[C@H]5c5ccccc5)cc2)C3)C4)C(=O)N1 (single isomer, unassigned) [Compound A38] | 0.05 to 0.5 | 0.01 to 0.1 | 25 to 50 | – | – | –
O=C1CCC(N2Cc3cc4c(cc3C2=O)CN(C(=O)CN2CC3(CCN(c5ccc([C@H]6c7ccc(O)cc7OC[C@H]6c6ccccc6)cc5)CC3)C2)C4)C(=O)N1 (single isomer, unassigned) [Compound A45] | 0.05 to 0.5 | > 0.1 | – | – | – | D (“D”; <25%)
2-(2,6-dioxopiperidin-3-yl)-6-(2-(9-(4-((3R,4S)-7-hydroxy-3-phenylchroman-4-yl)phenyl)-3,9-diazaspiro[5.5]undecan-3-yl)acetyl)-6,7-dihydropyrrolo[3,4-flisoindole-1,3(2H,5H)-dione [Compound A43] | > 5 | > 0.1 | – | – | – | D (“D”; <25%)
O=C1CCC(N2Cc3c(ccc4c3OC[C@@H]3CN(CC5CCN(c6ccc([C@@H]7c8ccc(O)cc8OC[C@@H]7c7ccccc7)cc6)CC5)CCN43)C2=O)C(=O)N1 (single isomer, unassigned) [Compound A7] | 0.05 to 0.5 | 0.001 to 0.01 | 50 to 75 | – | – | –
O=C1CCN(c2ccc(N3CCN(CC4CC5(CCN(c6ccc([C@@H]7c8ccc(O)cc8OC[C@@H]7c7ccccc7)cc6)CC5)C4)CC3)cc2)C(=O)N1 (single isomer, unassigned) [Compound A83] | > 5 | – | – | > 0.1 | < 25 | –
O=C1CCC(N2Cc3cc4c(cc3C2=O)CN(C(=O)CN2CCC3(CC2)CN(c2ccc([C@H]5c6ccc(O)cc6OC[C@H]5c5ccccc5)cc2)C3)C4)C(=O)N1 (stereo partly drawn) [Compound A48, 3-(6-(2-(2-(4-((3R,4S)-7-hydroxy-3-phenylchroman-4-yl)phenyl)-2,7-diazaspiro[3.5]nonan-7-yl)acetyl)-1-oxo-3,5,6,7-tetrahydropyrrolo[3,4-f]isoindol-2(1H)-yl)piperidine-2,6-dione] | 0.05 to 0.5 | > 0.1 | < 25 | – | – | –
O=C1CCC(N2Cc3c(ccc4c3OC[C@@H]3CN(CC5CCN(c6ccc([C@@H]7c8ccc(O)cc8OC[C@@H]7c7ccccc7)cc6F)CC5)CCN43)C2=O)C(=O)N1 (single isomer, unassigned) [Compound A6] | 0.05 to 0.5 | 0.001 to 0.01 | 50 to 75 | – | – | –
O=C1CCN(c2ccc(N3CCN(CC4CCN(c5ccc([C@@H]6c7ccc(O)cc7OC[C@@H]6c6ccccc6)cc5)CC4)CC3)cc2)C(=O)N1 (single isomer, unassigned) [Compound A82] | 0.5 to 5 | – | – | 0.001 to 0.01 | 25 to 50 | –
O=C1CCC(N2Cc3cc4c(cc3C2=O)CN(C(=O)CN2CCC3(CC2)CCN(c2ccc([C@@H]5c6ccc(O)cc6OC[C@@H]5c5ccccc5)cc2)CC3)C4)C(=O)N1 (single isomer, unassigned) [Compound A42] | 0.05 to 0.5 | > 0.1 | < 25 | – | – | –
COc1cc(N2CCC(CN3CCN4c5ccc6c(c5OC[C@H]4C3)CN(C3CCC(=O)NC3=O)C6=O)CC2)ccc1[C@H]1c2ccc(O)cc2OC[C@H]1c1ccccc1 (stereo partly drawn) [Compound A76, 3-((R)-7-((1-(4-((3R,4S)-7-hydroxy-3-phenylchroman-4-yl)-3-methoxyphenyl)piperidin-4-yl)methyl)-1-oxo-1,3,5,5a,6,7,8,9-octahydro-2H-81pyrazino[1′,2′:4,5][1,4]oxazino[2,3-e]isoindol-2-yl)piperidine-2,6-dione] | 0.05 to 0.5 | – | – | > 0.1 | < 25 | –
O=C1CCC(N2C(=O)c3cc4c(cc3C2=O)CN(C(=O)CN2CCC3(CC2)CN(c2ccc([C@@H]5c6ccc(O)cc6OC[C@@H]5c5ccccc5)cc2)C3)C4)C(=O)N1 (stereo partly drawn) [Compound A47, 2-(2,6-dioxopiperidin-3-yl)-6-(2-(2-(4-((3S,4R)-7-hydroxy-3-phenylchroman-4-yl)phenyl)-2,7-diazaspiro[3.5]nonan-7-yl)acetyl)-6,7-dihydropyrrolo[3,4-f]isoindole-1,3(2H,5H)-dione] | 0.5 to 5 | 0.01 to 0.1 | 25 to 50 | – | – | –
COc1nc(C(=O)NC2CCC(=O)NC2=O)ccc1N1CCN(CC2CCN(c3ccc([C@H]4c5ccc(O)cc5OC[C@H]4c4ccccc4)cc3F)CC2)CC1 (single isomer, unassigned) [Compound A102] | 0.5 to 5 | < 0.001 | 50 to 75 | – | – | –
